Source: patent publication US11254640B2, “N-substituted indoles and other heterocycles for treating brain disorders” (The Regents of the University of California, priority 2019, dated 2022)
Where two headings read alike, the source gives them in different places.

Tests used:
Type in all cases: cell-based
[1] = molecular target: T1, 5HT2A (Homo sapiens, UniProt P28223); assay: Calcium flux assay (Calcium secondary messenger pathway); conditions: agonist mode
T1 construct: expressed in transfected cells
T1 sequence (P28223 whole entry): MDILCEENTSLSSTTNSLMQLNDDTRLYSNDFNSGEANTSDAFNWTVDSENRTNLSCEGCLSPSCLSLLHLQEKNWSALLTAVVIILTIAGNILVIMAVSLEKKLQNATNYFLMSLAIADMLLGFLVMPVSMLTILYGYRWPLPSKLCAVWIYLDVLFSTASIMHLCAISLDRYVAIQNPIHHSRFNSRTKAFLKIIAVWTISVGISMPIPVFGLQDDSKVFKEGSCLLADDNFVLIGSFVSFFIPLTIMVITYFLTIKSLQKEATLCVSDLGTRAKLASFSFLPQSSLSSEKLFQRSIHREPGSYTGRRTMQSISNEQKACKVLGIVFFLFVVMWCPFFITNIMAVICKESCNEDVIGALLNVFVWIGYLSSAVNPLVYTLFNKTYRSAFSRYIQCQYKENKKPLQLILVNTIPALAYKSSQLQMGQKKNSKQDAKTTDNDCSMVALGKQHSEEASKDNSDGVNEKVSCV
Description: Calcium Flux Assay. Calcium Secondary Messenger Pathway. The Calcium No Wash^PLUS assay monitors the activation of a GPCR (e.g., 5HT2A) via Gq secondary messenger signaling in a live cell, non-imaging assay format. Calcium mobilization in PathHunter® cell lines or other cell lines stably expressing Gq-coupled GPCRs (e.g., 5HT2A) is monitored using a calcium-sensitive dye that is loaded into cells. GPCR (e.g., 5HT2A) activation by a compound results in the release of calcium from intracellular stores and an increase in dye fluorescence that is measured in real-time. In some embodiments, the ability of a compound of the present invention to modulate 5-HT2A function is determined using a calcium flux assay. In some embodiments, a compound of the present invention activates a calcium flux assay.
Calcium Secondary Messenger Pathway. Cell lines were expanded from freezer stocks according to standard procedures. Cells were seeded in a total volume of 20 μL into black-walled, clear-bottom, Poly-D-lysine coated 384-well microplates and incubated at 37° C. for the appropriate time prior to testing. Assays were performed in 1× Dye Loading Buffer consisting of 1× Dye, 1× Additive A and 2.5 mM Probenecid in HBSS/20 mM Hepes. Probenicid was prepared fresh. Cells were loaded with dye prior to testing. Media was aspirated from cells and replaced with 20 μL Dye Loading Buffer. Cells were incubated for 30-60 minutes at 37° C.
For agonist determination, cells were incubated with sample to induce response. After dye loading, cells were removed from the incubator and 10 μL HBSS/20 mM Hepes was added. 3× vehicle was included in the buffer when performing agonist dose curves to define the EC80 for subsequent antagonist assays. Cells were incubated for 30 minutes at room temperature in the dark to equilibrate plate temperature. Intermediate dilution of sample stocks was performed to generate 4× sample in assay buffer. Compound agonist activity was measured on a FLIPR Tetra (MDS). Calcium mobilization was monitored for 2 minutes and 10 μL 4× sample in HBSS/20 mM Hepes was added to the cells 5 seconds into the assay.
Compound activity was analyzed using CBIS data analysis suite (ChemInnovation, CA). For agonist mode assays, percentage activity is calculated using the following formula: % Activity=100%×(mean RFU of test sample−mean RFU of vehicle control)/(mean MAX RFU control ligand−mean RFU of vehicle control).

[2] = tested on: 5HT2A sensor; assay: 5HT2A sensor assay, antagonist mode (sLight1.3s HEK293T stable line); conditions: relative to 5-HT at 100 nM; for 5HT2A Antagonist mean @ 100 nM (%): 100 nM compound; for 5HT2A Antagonist mean @ 10 μM (%): 10 μM compound; for 5HT2A Antagonist mean @ 100 μM (%): 100 μM compound
Description: In some embodiments, the 5HT2A sensor assay is in an antagonist mode.
(§1) 5HT2A Sensor Assays. HEK293T (ATCC) 5HT2A sensor stable line (sLight1.3s) was generated via lentiviral transduction of HIV-EF1α-sLight1.3 and propagated from a single colony. Lentivirus was produced using 2nd generation lentiviral plasmids pHIV-EF1α-sLight1.3, pHCMV-G, and pCMV-deltaR8.2.
(§2) For the screening of the 41 compounds, sLight1.3s cells were plated in 96-well plates at a density of 40000 24-hours prior to imaging. On the day of imaging, compounds solubilized in DMSO were diluted from the 100 mM stock solution to working concentrations of 1 mM, 100 μM and 1 μM with a DMSO concentration of 1%. Immediately prior to imaging, cells growing in DMEM (Gibco) were washed 2× with HBSS (Gibco) and in agonist mode 180 μL of HBSS or in antagonist mode 160 μL of HBSS was added to each well after the final wash. For agonist mode, images were taken before and after the addition of the 20 μL compound working solution into the wells containing 180 μL HBSS. This produced final compound concentrations of 100 μM, 10 μM and 100 nM with a DMSO concentration of 0.1%. For antagonist mode, images were taken before and after addition of 20 μL of 900 nM 5-HT and again after 20 μL of the compound working solutions to produce final concentrations of 100 nM for 5HT and 100 μM, 10 μM and 100 nM for the compounds with a DMSO concentration of 0.1%. Each compound was tested in triplicates (3 wells) for each concentration (100 μM, 10 μM and 100 nM). Additionally, within each plate, 100 nM 5HT and 0.1% DMSO controls were also imaged.
(§3) Imaging was performed using the Leica DMi8 inverted microscope with a 40× objective using the FITC preset with an excitation of 460 nm and emission of 512-542 nm. For each well, the cellular membrane where the 5HT2A sensor is targeted was autofocused using the adaptive focus controls and 5 images from different regions within the well were taken with each image processed from a 2×2 binning.
(§4) For data processing, the membranes from each image was segmented and analyzed using a custom algorithm written in MATLAB producing a single raw fluorescence intensity value. For each well the 5 raw fluorescence intensity values generated from the 5 images were averaged and the change in fluorescence intensity (dFF) was calculated as: dFF=(Fsat−Fapo)/Fapo
(§5) For both agonist and antagonist modes, the fluorescence intensity values before compound addition in HBSS only were used as the Fapo values while the fluorescence intensity values after compound addition were used as the Fsat values.
(§6) For agonist mode, data are as percent activation relative to 5HT, where 0 is the average of the DMSO wells and 100 is the average of the 100 uM 5HT wells. For antagonist mode, the inactivation score was calculated as: Inactivation score=(dFFF(Compound+5HT)−dFF(5HT))/dFF(5HT)

[3] = tested on: rat cortical neurons; assay: Neurite outgrowth assay; conditions: Cortical neurone, 1 hour treatment at DIV 4, analysed DIV 7, fold vs DMSO control
Description: Neurite outgrowth assay. Changes in the pattern of neurite outgrowth have been implicated in neurodegenerative disorders as well as traumatic injuries. The discovery of new compounds that can positively affect neuritogenesis are important for developing new therapeutics for neurological diseases. Measurement of neurite outgrowth of rat cortical neurons using an automated image-based assay was used to determine the neuroplastic effects of the compounds of the present invention. In some embodiments, a compound of the present invention increases the pattern of neurite outgrowth. In some embodiments, a compound of the present invention increases neurite average length compared to a control. In some embodiments, a compound of the present invention increases neurite branch points compared to a control. In some embodiments, a compound of the present invention increases neurite average length and neurite branch points compared to a control.
Neurite Outgrowth Assay. Rat cortical neurons (20,000 cells/well) were freshly isolated from embryonic day 18 rats and cultured in Neurobasal Medium (+B27). The cultured cells were plated in 96 well-plates (avoiding external wells). At DIV 4, the neurons were treated with compound or control (10 μM) for 1 hour followed by complete washout of the compound. At DIV 7, the neurons were analyzed. The experiments were performed in triplicate. Neurite outgrowth was measured analyzing the following parameters: Number of Cell Bodies, total neurite length (pixels), Root Count, Segments, Extremities Count and node points. Changes in the pattern of neurite outgrowth of the neurons were analyzed by immunocytochemistry against β-III-tubulin. Pictures were acquired by the CellInsight CX7 from Thermo Fisher and analyzed using its software. Results generated in the equipment were maximum neurite length, extremity count, root count, dendrite branch points, and total neurite length. The results were compared to DMSO control, representing the fold-change in neuronal outgrowth.

[4] = tested on: 5HT2A sensor; assay: 5HT2A sensor assay, agonist mode (sLight1.3s HEK293T stable line); conditions: percent relative to 5-HT at 100 uM; for 5HT2A Agonist mean @ 100 nM (%): 100 nM compound; for 5HT2A Agonist mean @ 10 μM (%): 10 μM compound; for 5HT2A Agonist mean @ 100 μM (%): 100 μM compound
Description: In some embodiments, hallucinogenic potential of a compound of the present invention is determined in vitro. In some embodiments, hallucinogenic potential of a compound of the present invention is determined using a 5HT2A sensor assay. In some embodiments, the 5HT2A sensor assay is in an agonist mode or an antagonist mode. In some embodiments, the 5HT2A sensor assay is in an agonist mode.
as §1, §2, §3, §4, §5, §6

[5] = read-out: Neurite Average Length @ 10 μM
[6] = read-out: Neurite Branch Points: @ 10 μM

Compound | EC50 [1] [µM] | 5HT2A Antagonist mean @ 100 nM (%) [2] | 5HT2A Antagonist mean @ 10 μM (%) [2] | 5HT2A Antagonist mean @ 100 μM (%) [2] | fold induction at 10 µM [3, 5] | fold induction at 10 µM [3, 6] | 5HT2A Agonist mean @ 100 nM (%) [4] | 5HT2A Agonist mean @ 10 μM (%) [4] | 5HT2A Agonist mean @ 100 μM (%) [4]
FC(F)(F)Oc1ccc2c(ccn2CCN2CCOCC2)c1 [Example 52, 4-(2-(5-(trifluoromethoxy)-1H-indol-1-yl)ethyl)morpholine] | > 10 | A (inhibits 5HT response by >100%) | B (inhibits 5HT response by 75% to 100%) | B (inhibits 5HT response by 75% to 100%) | 1.5 to 3 | 1.5 to 3 | B (does not activate 5HT2A sensor assay in agonist mode) | B (does not activate 5HT2A sensor assay in agonist mode) | A (activates 5HT2A sensor assay in agonist mode)
COc1ccc2c(ccn2CCN2CCCC2)c1 [Example 44, 5-methoxy-1-(2-(pyrrolidin-1-yl)ethyl)-1H-indole] | > 10 | C (inhibits 5HT response by <75%) | A (inhibits 5HT response by >100%) | A (inhibits 5HT response by >100%) | 1.5 to 3 | > 3 | B (does not activate 5HT2A sensor assay in agonist mode) | B (does not activate 5HT2A sensor assay in agonist mode) | B (does not activate 5HT2A sensor assay in agonist mode)
COc1ccc2c(ccn2CCN2CC3(COC3)C2)c1 [Example 84, 6-(2-(5-methoxy-1H-indol-1-yl)ethyl)-2-oxa-6-azaspiro[3.3]heptane] | > 10 | B (inhibits 5HT response by 75% to 100%) | B (inhibits 5HT response by 75% to 100%) | B (inhibits 5HT response by 75% to 100%) | 1.5 to 3 | 1.5 to 3 | B (does not activate 5HT2A sensor assay in agonist mode) | B (does not activate 5HT2A sensor assay in agonist mode) | A (activates 5HT2A sensor assay in agonist mode)
CC[C@@H](Cn1ccc2cc(OC)ccc21)N(C)C [Example 76, (S)-1-(5-methoxy-1H-indol-1-yl)-N,N-dimethylbutan-2-amine] | > 10 | A (inhibits 5HT response by >100%) | A (inhibits 5HT response by >100%) | A (inhibits 5HT response by >100%) | 1.5 to 3 | 1.5 to 3 | B (does not activate 5HT2A sensor assay in agonist mode) | B (does not activate 5HT2A sensor assay in agonist mode) | B (does not activate 5HT2A sensor assay in agonist mode)
C[C@H](Cn1ccc2cc(F)cc(F)c21)N(C)C [Example 69, (R)-1-(5,7-difluoro-1H-indol-1-yl)-N,N-dimethylpropan-2-amine] | > 10 | B (inhibits 5HT response by 75% to 100%) | B (inhibits 5HT response by 75% to 100%) | B (inhibits 5HT response by 75% to 100%) | 1.5 to 3 | > 3 | B (does not activate 5HT2A sensor assay in agonist mode) | B (does not activate 5HT2A sensor assay in agonist mode) | A (activates 5HT2A sensor assay in agonist mode)
